Starred links: 1 amine or outer side, 2 acyl side, 3 side chain; linkers in the order of their positions; H or OH if unused. Positions of bridges follow the written chain, without caps; N, C: chain ends. Non-standard residues stand in square brackets, D forms with d. Primed or numbered codes have the meaning given here. No end group written: not given here. Bpg″ = L-bishomopropargylglycine residue, C#CCCC[C@H](N[*:1])C(=O)[*:2]; Lys(N3) = [N-]=[N+]=NCCCC[C@H](N)C(=O)O; Orn(N3) = [N-]=[N+]=NCCC[C@H](N)C(=O)O; Dap(N3) = [N-]=[N+]=NC[C@H](N)C(=O)O; Aha = [N-]=[N+]=NCC[C@H](N)C(=O)O; Bpg = L-bishomopropargylglycine; Hpra = C#CCC[C@H](N)C(=O)O; Pra = C#CC[C@H](N)C(=O)O

A short description of data set [1]: Chemical resistance: rate of change in antibody binding amount of immobilized support before and after alkali treatment. The format is physicochemical. The note with it: for Chemical resistance (rate of change in the binding amount): peptide-immobilized HiTrap support, human IgG binding amount at 10% leak, before and after 0.05 M aqueous NaOH for 6 hours at 25° C. As to the method:
1 mL of HiTrap NHS-activated HP Columns (coupling columns for ligand immobilization, manufactured by GE Healthcare) (HITRAP is a registered trademark) was reacted with 1 mL of 10 mg/mL cyclic peptide solution, which was prepared by dissolving the cyclic peptide 1 in an immobilization buffer (10% DMSO in 200 mM NaHCO3, 500 mM NaCl, pH 8.3), for 1 hour at 25° C. The reaction product was blocked by an aqueous ethanolamine solution and washed, thereby obtaining a cyclic peptide 1-immobilized support. Hereinafter, the obtained immobilized support will be referred to as “immobilized support A”.
The immobilized support A prepared in (4) described above was connected to a chromatography system AKTA avant 25 (manufactured by GE Healthcare) (AKTAAVANT is a registered trademark), and the antibody binding amount was measured. The columns were equilibrated using an equilibration solution (20 mM phosphoric acid buffer, 150 mM NaCl, pH 7.4), and then 20 mL of a 5 mg/mL human IgG antibody standard buffer solution (20 mM phosphoric acid buffer, 150 mM NaCl, pH 7.4) was injected thereinto at a flow rate of 0.21 mL/min. Thereafter, the columns were washed with 5 mL of a postloading wash solution (20 mM phosphoric acid buffer, 150 mM NaCl, pH 7.4) caused to flow at the same flow rate and then washed with 5 mL of a pre-elution wash solution (20 mM phosphoric acid buffer, 1 M NaCl, pH 7.4) at the same flow rate. Then, 5 mL of an elution solution (100 mM citric acid buffer, pH 3.2) was caused to flow at the same flow rate. Subsequently, 5 mL of a cleaning in place (CIP) solution (0.1 M sodium hydroxide) was caused to flow at the same flow rate, and then 5 mL of a reequilibration solution (20 mM phosphoric acid buffer, 150 mM NaCl, pH 7.4) was caused to flow at the same flow rate. At this time, by using an immunoglobulin G (IgG) elution peak obtained by monitoring absorbance at 280 nm, the amount of antibodies binding to the support until 10% of the antibody stock solution leaked out of the support was measured as the antibody binding amount. Then, the immobilized support A was filled with a 0.05 M aqueous NaOH solution for 6 hours at 25° C. and left to stand, the antibody binding amount of the support was then measured in the same manner, and a rate of change in the binding amount was calculated from the antibody binding amount before and after the alkali treatment.

Data set [2] concerns human immunoglobulin G (IgG) antibodies. In words: Relative binding activity to human IgG antibodies by surface plasmon resonance on immobilized sensor chip. The following applies: for Relative binding activity: SPR (Biacore 3000, CM5 chip), 3,000 nM human IgG for 10 minutes at 25° C., relative to the cyclic peptide of Comparative Example 1 regarded as 1. Here is the method: A commercially available CM5 (carboxymethyl dextran introduction-type, manufactured by GE Healthcare) sensor chip was set in Biacore 3000 (Biacore is a registered trademark) as a surface plasmon resonance device manufactured by GE Healthcare, a 4-(2-hydroxyethyl)-1-piperazineethanesulfonic acid (HEPES) buffer solution (20 mM HEPES-HCl, 150 mM NaCl, pH 7.4) for surface plasmon resonance (SPR) was stabilized at a flow rate of 10 μL/min, and 70 μL of an aqueous mixed solution of 0.2 M 1-(3-Dimethylaminopropyl)-3-ethylcarbodiimide (EDC) and […] of N-Hydroxysuccinimide (NHS) were injected thereinto. Thereafter, 100 μL of a sample solution of the cyclic peptide 1, which was diluted with a HEPES buffer solution at 0.2 g/L and treated with a polytetrafluoroethylene (PTFE) filter (manufactured by Advantec MFS, Inc.) having a diameter of 0.20 μm, was supplied to the sensor chip. Then, a blocking treatment was then performed on the sample solution by using an aqueous ethanolamine solution, and the sensor chip was washed with an aqueous sodium hydroxide solution, thereby performing immobilization. Likewise, 70 μL of an aqueous mixed solution of 0.2 M EDC and 0.04 M NHS was added to the same sensor chip without immobilizing the sample in another flow channel of the sensor chip, and then the blocking treatment and the washing treatment were performed. Hereinafter, the obtained immobilized sensor chip will be referred to as “immobilized sensor chip A”.
At 25° C., 3,000 nM of human immunoglobulin G (IgG) antibodies were added for 10 minutes to the immobilized sensor chip A prepared in (2) described above. Then, the antibody binding amount in the flow channel in which the cyclic peptide was immobilized immediately after the addition and in the flow channel in which the cyclic peptide was not immobilized was measured. From the difference in the antibody binding amount between the flow channel in which the cyclic peptide was immobilized and the flow channel in which the cyclic peptide was not immobilized and the amount of the immobilized cyclic peptide, the activity of the cyclic peptide was calculated. Furthermore, by regarding the activity of a cyclic peptide 5 in Comparative Example 1 as 1, the relative binding activity with respect to the human IgG antibodies was calculated.
In general terms: Surface plasmon resonance follows binding to a sensor surface in real time, without labels.

Consider “Asp-[Hpg]-Ala-Tyr-His-Leu-Gly-Glu-Leu-Val-Trp-[Nva(N3)]-Thr-Lys-Lys (D[Hpra]AYHLGELVW[Orn(N3)]TKK; triazole 2-12) [Cyclic peptide 15, [Hpg] and [Nva(N3)] cross-linked through a triazole bond]”, for which the “Chemical resistance (rate of change in the binding amount)” value in data set [1] is “A (The rate of change in the binding amount was higher than 90%)”. The Relative binding activity entry in data set [2] was “B (The relative binding activity was higher than 400% and equal to or lower than 800% of the binding activity of the cyclic peptide 5)”.
As to “Asp-[Bpg]-Ala-Tyr-His-Leu-Gly-Glu-Leu-Val-Trp-[Lys(N3)]-Thr-Lys-Lys (D[Bpg]AYHLGELVW[Lys(N3)]TKK; triazole 2-12) [Cyclic peptide 3, [Bpg] and [Lys(N3)] cross-linked through a triazole bond]”, the “Chemical resistance (rate of change in the binding amount)” value in data set [1] is “A (The rate of change in the binding amount was higher than 90%)”. Further, the Relative binding activity result in data set [2] was “A (The relative binding activity was higher than 800% of the binding activity of the cyclic peptide 5)”.
For the substance “Asp-[Hpg]-Ala-Tyr-His-Leu-Gly-Glu-Leu-Val-Trp-[Abu(N3)]-Thr-Lys-Lys (D[Hpra]AYHLGELVW[Aha]TKK; triazole 2-12) [Cyclic peptide 12, [Hpg] and [Abu(N3)] cross-linked through a triazole bond]”, in data set [1], the “Chemical resistance (rate of change in the binding amount)” value is given as “A (The rate of change in the binding amount was higher than 90%)”. Further, in data set [2], the Relative binding activity entry is on record as “A (The relative binding activity was higher than 800% of the binding activity of the cyclic peptide 5)”.
Regarding “Asp-[Bpg]-Ala-Tyr-His-Leu-Gly-Glu-Leu-Val-Trp-[Nva(N3)]-Thr-Lys-Lys (D[Bpg″]AYHLGELVW[Orn(N3)]TKK; triazole 2-12; also: Xaa2 derived from gamma-azido-L-homoalanine) [Cyclic peptide 14, [Bpg] and [Nva(N3)] cross-linked through a triazole bond]”, the “Chemical resistance (rate of change in the binding amount)” value in data set [1] is given as “A (The rate of change in the binding amount was higher than 90%)”. The Relative binding activity entry was “B (The relative binding activity was higher than 400% and equal to or lower than 800% of the binding activity of the cyclic peptide 5)” in data set [2]; “C or a higher grade” in data set [2] (listed as Example 14).
In the case of “Asp-[Pra]-Ala-Tyr-His-Leu-Gly-Glu-Leu-Val-Trp-[Lys(N3)]-Thr-Lys-Lys (D[Pra]AYHLGELVW[Lys(N3)]TKK; triazole 2-12) [Cyclic peptide 9, [Pra] and [Lys(N3)] cross-linked through a triazole bond]”, the “Chemical resistance (rate of change in the binding amount)” value in data set [1] is recorded as “A (The rate of change in the binding amount was higher than 90%)”. In addition, the Relative binding activity result in data set [2] was “B (The relative binding activity was higher than 400% and equal to or lower than 800% of the binding activity of the cyclic peptide 5)”; in data set [2] (listed as Example 9), “C or a higher grade”.
As to “Lys-Lys-Lys-Asp-[Hpg]-Ala-Tyr-His-Leu-Gly-Glu-Leu-Val-Trp-[Ala(N3)]-Thr (KKKD[Hpra]AYHLGELVW[Dap(N3)]T; triazole 5-15) [Cyclic peptide 5, [Hpg] and [Ala(N3)] cross-linked through a triazole bond]”, the “Chemical resistance (rate of change in the binding amount)” value in data set [1] was “A (The rate of change in the binding amount was higher than 90%)”. Also, in data set [2], the Relative binding activity entry is on record as “A (The relative binding activity was higher than 800% of the binding activity of the cyclic peptide 5)”.
Take “Asp-[Abu(N3)]-Ala-Tyr-His-Leu-Gly-Glu-Leu-Val-Trp-[Pra]-Thr-Lys-Lys (D[Aha]AYHLGELVW[Pra]TKK; triazole 2-12) [Cyclic peptide 7, [Abu(N3)] and [Pra] cross-linked through a triazole bond]”: the “Chemical resistance (rate of change in the binding amount)” value in data set [1] was “A (The rate of change in the binding amount was higher than 90%)”. The Relative binding activity result in data set [2] was “B (The relative binding activity was higher than 400% and equal to or lower than 800% of the binding activity of the cyclic peptide 5)”.
For “Asp-[Abu(N3)]-Ala-Tyr-His-Leu-Gly-Glu-Leu-Val-Trp-[Hpg]-Thr-Lys-Lys (D[Aha]AYHLGELVW[Hpra]TKK; triazole 2-12) [Cyclic peptide 11, [Abu(N3)] and [Hpg] cross-linked through a triazole bond]”, the “Chemical resistance (rate of change in the binding amount)” value in data set [1] is recorded as “A (The rate of change in the binding amount was higher than 90%)”. In data set [2], the Relative binding activity result is “A (The relative binding activity was higher than 800% of the binding activity of the cyclic peptide 5)”.
For the substance “Asp-[Glu]-Ala-Tyr-His-Leu-Gly-Glu-Leu-Val-Trp-[Lys]-Thr-Lys-Lys [Cyclic peptide 18, reference compound]”, in data set [1], the “Chemical resistance (rate of change in the binding amount)” value is “B (The rate of change in the binding amount was higher than 80% and equal to or lower than 90%)”. In addition, the “chemical resistance (in words)” value in data set [1] (summary wording of the chemical resistance evaluation, listed as Comparative Example 2) is “poor and sufficient”. Also, the Relative binding activity entry in data set [2] was “E (The relative binding activity was equal to or lower than 100% of the binding activity of the cyclic peptide 5)”. The “antibody binding properties (in words)” value in data set [2] (summary wording of the relative binding activity evaluation, listed as Comparative Example 2) is “excellent and poor”.
For the substance “Asp-[Lys(N3)]-Ala-Tyr-His-Leu-Gly-Glu-Leu-Val-Trp-[Pra]-Thr-Lys-Lys (D[Lys(N3)]AYHLGELVW[Pra]TKK; triazole 2-12) [Cyclic peptide 10, [Lys(N3)] and [Pra] cross-linked through a triazole bond]”, the “Chemical resistance (rate of change in the binding amount)” value in data set [1] is recorded as “A (The rate of change in the binding amount was higher than 90%)”. The Relative binding activity result in data set [2] is “C (The relative binding activity was higher than 200% and equal to or lower than 400% of the binding activity of the cyclic peptide 5)”.
As to “Asp-[Abu(N3)]-Ala-Tyr-His-Leu-Gly-Glu-Leu-Val-Trp-[Bpg]-Thr-Lys-Lys (D[Aha]AYHLGELVW[Bpg]TKK; triazole 2-12) [Cyclic peptide 13, [Abu(N3)] and [Bpg] cross-linked through a triazole bond]”, the “Chemical resistance (rate of change in the binding amount)” value in data set [1] is on record as “A (The rate of change in the binding amount was higher than 90%)”. Also, the Relative binding activity result in data set [2] was “B (The relative binding activity was higher than 400% and equal to or lower than 800% of the binding activity of the cyclic peptide 5)”.
